According to article PMC7011920, “Synthesis and biological evaluation of stilbene derivatives coupled to NO donors as potential antidiabetic agents” (Journal of Enzyme Inhibition and Medicinal Chemistry, 2018):
Read-outs that look alike come from different tables or passages of the source.

What was measured:
α-Glucosidase = target: T1, α-Glucosidase (Saccharomyces cerevisiae, UniProt P53341); assay: biochemical
T1 construct: purchased Sigma Aldrich G0660-750UN
Experimental: α-Glucosidases, enzymes anchored in the brush border of the small intestine, are responsible for catalysing the hydrolysis of carbohydrates.
α-Glucosidase (G0660-750UN, Sigma Aldrich, St. Louis, MO) and 4-nitrophenyl α-D-glucopyranoside (PNPG, Macklin) were dissolved in phosphate buffer (pH 6.8, 100 mM), and the test compounds were dissolved in DMSO solution. The experiment was divided into blank group, control group, sample blank group and sample group. The reagents were loaded in 96-well plates at the dose of the table (Table 3). The solution was bathed in 37 °C water for 10 min, after the end, enzyme solution was added. After reaction at 37 °C for 20 min, 70 µL Na2CO3 solution ([…]) was added to stop the reaction. All experiments were run in triplicate. […] Since PNPG can produce glucose and p-nitrophenol (PNP) under the action of α-glucosidase, PNP has the greatest absorption at 405 nm. The absorbance was determined by the microplate reader, and the inhibition rate of α-glucosidase and the IC50 value of each sample were calculated according to the formula. Inhibition rate %={[(AC−AB)−(AS−ASB)]/(AC−AB)}×100% where AC is the absorbance of control group; AB is the absorbance of blank group; AS is the absorbance of sample group; ASB is the absorbance of sample blank group.

[1] = tested on: AGEs (advanced glycation end products) formation; assay: In vitro inhibitory activity of AGEs formation (bovine serum albumin/glucose, fluorescence); settings: 50% inhibition of fluorescence intensity of AGE relative to 0.1% DMSO; mean ± SD (n = 3)
Experimental: Advanced glycation end products are a group of complex and heterogeneous compounds, which are implicated in a number of biochemical abnormalities associated with diabetes[21]^,[22]. Therefore, the discovery of AGEs inhibitors would be beneficial to the prevention and treatment of diabetic or other pathogenic complications.
To prepare the AGE reaction solution, 10 mg/ml of bovine serum albumin in 50 mM PBS (pH 7.4) was added to 0.2 M glucose, and 0.02% sodium azide was added to prevent bacterial growth. The reaction mixture (3 ml) was then mixed with various concentrations (0.5–1000 µg/ml) of the target compounds (1 ml) dissolved in DMSO. After incubating at 37 °C for 14 d, the fluorescence intensity of AGE was determined by a fluorospectrophotometer (PE, Cincinnati, OH) with excitation and emission wavelengths at 350 nm and 420 nm[30], respectively. All experiments were run in triplicate. Aminoguanidine hydrochloride was used as a reference compound. The inhibition rate of AGEs formation and the IC50 value of each sample were calculated according to the formula. Inhibition rate %={[(AC−AB)−(AS−ASB)]/(AC−AB)}×100% where AC is the absorbance of control group (1.0 ml glucose +1.0 ml bovine serum albumin +1.0 ml sodium azide +1.0 ml DMSO); AB is the absorbance of blank group (1.0 ml PBS +1.0 ml bovine serum albumin +1.0 ml sodium azide +1.0 ml DMSO); AS is the absorbance of sample group (1.0 ml glucose +1.0 ml bovine serum albumin +1.0 ml sodium azide +1.0 ml target compound solution or aminoguanidine hydrochloride solution); ASB is the absorbance of sample blank group (1.0 ml PBS +1.0 ml bovine serum albumin +1.0 ml sodium azide +1.0 ml target compound solution or aminoguanidine hydrochloride solution).

aldose reductase (ALR2) = target: T2, aldose reductase (ALR2) (Mus musculus, UniProt P45376); assay: In vitro ALR2 inhibitory activity (crude enzyme, NADPH decrease at 340 nm); type: biochemical, mice
T2 construct: After homogenisation and centrifugation, the crude ALR2 from mice was obtained; from tissue
Experimental: The enzyme aldose reductase (ALR2) is a member of the aldo–keto reductase superfamily. The development and progression of chronic diabetic complications are confirmed to be quite related to the activation and/or over expression of ALR2[25]. Therefore, ALR2 inhibitors may play a critical role in preventing or treating these complications.
After homogenisation and centrifugation, the crude ALR2 from mice was obtained. The inhibitory activity of the compounds on ALR2 was carried out using crude enzyme and different concentrations of the compounds (1–1000 µg/ml) in 200 mM PBS (pH 6.2) containing 0.10 mM NADPH. The reaction was initiated by addition of glyceraldehyde and the decrease in the optical density of NADPH at 340 nm was recorded for 3 min. All experiments were run in triplicate. IC50 of the compounds was calculated. The flavonoid quercetin was used as a reference in the ALR2 assay.

[2] = tested on: STZ-induced diabetic mice; assay: Acute hypoglycaemic assay in STZ-diabetic mice; type: in vivo; settings: for Blood glucose concentration: mean ± SEM, six mice
Experimental: The antidiabetic activity was determined by using a standard method. […] Especially, compound 7c caused significant decreases in blood glucose levels when compared with vehicle-treated groups (p < .05). […] In STZ-diabetic animals, the hypoglycaemic effect of pterostilbene (40 mg/kg of bw) was larger than 50% since 5 h and persisted throughout the experiment. Target compound 7c (40 mg/kg of bw) caused significant decreases in blood glucose levels compared with pterostilbene (40 mg/kg of bw).
Type II DM was induced in mice by a single intraperitoneal injection of freshly prepared STZ (Sigma Aldrich, St. Louis, MO) dissolved in 0.1 M citrate buffer, pH 4.5, in a […] of 120 mg/kg of bw. After seven days of STZ administration, blood glucose levels of each mouse were determined. Mice with blood glucose levels higher than 11 mM were considered diabetic and were included in the study.
STZ-induced diabetic mice and normal mice were placed in single cages with wire-net floors and deprived of food for 12 h before experimentation but allowed free access to tap water throughout. The compounds (at the doses of 10, 40, and 100 mg/kg of bw) were suspended in 0.05% Tween-80 in saline solution. Glibenclamide (10 mg/kg of bw) was suspended in the same vehicle. The target compounds were freshly prepared immediately before experimentation and administered by the intragastrical route at the doses of 10 ml/kg of bw. Control mice received only the vehicle (0.05% Tween-80 in saline solution) by the same route. Blood glucose levels were measured at 0, 1.5, 3, 5, 7, and 9 h after drugs administration.

[3] = read-out: IC50 value, α-Glucosidase inhibitory activity
[4] = read-out: IC50 value, ALR2 inhibitory activity
[5] = dose 40 mg/kg per os, 1.5 h vs 0 h
[6] = dose 40 mg/kg per os, 3 h vs 0 h
[7] = dose 40 mg/kg per os, 5 h vs 0 h
[8] = dose 40 mg/kg per os, 7 h vs 0 h
[9] = dose 40 mg/kg per os, 9 h vs 0 h

T1 sequence (P53341 whole entry): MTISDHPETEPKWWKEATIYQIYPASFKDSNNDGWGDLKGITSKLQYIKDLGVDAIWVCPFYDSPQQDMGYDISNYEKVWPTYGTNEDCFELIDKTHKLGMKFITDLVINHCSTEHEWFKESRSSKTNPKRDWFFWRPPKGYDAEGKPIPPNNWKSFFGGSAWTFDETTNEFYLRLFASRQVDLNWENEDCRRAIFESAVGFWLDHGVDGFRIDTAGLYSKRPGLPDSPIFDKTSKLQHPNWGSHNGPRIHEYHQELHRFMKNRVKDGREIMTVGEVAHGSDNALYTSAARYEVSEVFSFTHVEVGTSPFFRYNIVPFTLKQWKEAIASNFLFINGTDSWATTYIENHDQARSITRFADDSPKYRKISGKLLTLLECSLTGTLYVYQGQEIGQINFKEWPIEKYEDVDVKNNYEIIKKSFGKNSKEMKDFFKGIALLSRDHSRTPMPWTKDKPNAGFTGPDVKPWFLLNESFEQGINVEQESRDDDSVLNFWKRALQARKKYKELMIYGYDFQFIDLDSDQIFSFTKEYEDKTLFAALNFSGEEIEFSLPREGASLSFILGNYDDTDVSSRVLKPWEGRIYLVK

Question: Which IC50 (α-Glucosidase; [3]) does the source give for `COc1cc(/C=C/c2ccc(O)cc2)cc(OC)c1` [Pterostilbene, reference compound] here?
Answer: > 1000 µM

Question: What about the IC50 [1] of the same compound?
Answer: 1.99 ± 0.51 µM

Question: What about the IC50 (aldose reductase (ALR2); [4]) of the same compound?
Answer: > 1000 µM

Question: What about the hypoglycaemic effect ([2]; 40 mg/kg of bw, STZ-diabetic animals, since 5 h and throughout the experiment) of the same compound?
Answer: > 50%

Question: What about the Blood glucose concentration ([2]; dose 40 mg/kg per os, 0 h) of the same compound?
Answer: 17.2 ± 7.0 mM

Question: What about the Blood glucose concentration ([2]; dose 40 mg/kg per os, 1.5 h) of the same compound?
Answer: 12.1 ± 6.4 mM

Question: What about the “% Variation of glycaemia” value [2, 5] of the same compound?
Answer: –29.91%

Question: What about the Blood glucose concentration ([2]; dose 40 mg/kg per os, 3 h) of the same compound?
Answer: 10.2 ± 6.2 mM

Question: What about the “% Variation of glycaemia” value [2, 6] of the same compound?
Answer: –40.89%

Question: And the Blood glucose concentration ([2]; dose 40 mg/kg per os, 5 h)?
Answer: 8.4 ± 5.6 mM

Question: And the “% Variation of glycaemia” value [2, 7]?
Answer: –51.42%

Question: And the Blood glucose concentration ([2]; dose 40 mg/kg per os, 7 h)?
Answer: 7.7 ± 5.3 mM

Question: What about the “% Variation of glycaemia” value [2, 8] of the same compound?
Answer: –55.36%

Question: And the Blood glucose concentration ([2]; dose 40 mg/kg per os, 9 h)?
Answer: 6.9 ± 4.3 mM

Question: What about the “% Variation of glycaemia” value [2, 9] of the same compound?
Answer: –59.82%

Question: Which IC50 (α-Glucosidase; [3]) does the source give for `COc1cc(/C=C/c2ccc(OCCO[N+](=O)[O-])cc2)cc(OC)c1` [3a, O4′-Nitrooxyethyl pterostilbene] here?
Answer: > 1000 µM

Question: And the IC50 [1]?
Answer: 2.9 ± 0.09 µM

Question: What about the IC50 (aldose reductase (ALR2); [4]) of the same compound?
Answer: > 1000 µM

Question: And the melting point?
Answer: 142.2 to 143.2 °C

Question: With `N=C(N)NN` [AG, amino guanidine, reference compound] as the compound, how does the IC50 [1] read?
Answer: 283 ± 8.52 µM

Question: Which IC50 (α-Glucosidase; [3]) does the source give for `COc1cc(/C=C/c2ccc(OCCCCO[N+](=O)[O-])cc2)cc(OC)c1` [3b] here?
Answer: > 1000 µM

Question: And the IC50 [1]?
Answer: 2.39 ± 0.11 µM

Question: And the IC50 (aldose reductase (ALR2); [4])?
Answer: > 1000 µM

Question: And the melting point?
Answer: 110.9 to 111.3 °C

Question: For `COc1ccc(Cl)cc1C(=O)NCCc1ccc(S(=O)(=O)NC(=O)NC2CCCCC2)cc1` [Glibenclamide, reference compound], which Blood glucose concentration ([2]; dose 10 mg/kg per os, 0 h) is on record?
Answer: 20.2 ± 5.4 mM

Question: What about the Blood glucose concentration ([2]; dose 10 mg/kg per os, 1.5 h) of the same compound?
Answer: 11.6 ± 4.9 mM

Question: What about the “% Variation of glycaemia” value ([2]; dose 10 mg/kg per os, 1.5 h vs 0 h) of the same compound?
Answer: –42.63%

Question: What about the Blood glucose concentration ([2]; dose 10 mg/kg per os, 3 h) of the same compound?
Answer: 7.6 ± 3.9 mM

Question: And the “% Variation of glycaemia” value ([2]; dose 10 mg/kg per os, 3 h vs 0 h)?
Answer: –62.32%

Question: What about the Blood glucose concentration ([2]; dose 10 mg/kg per os, 5 h) of the same compound?
Answer: 6.1 ± 3.6 mM

Question: And the “% Variation of glycaemia” value ([2]; dose 10 mg/kg per os, 5 h vs 0 h)?
Answer: –69.58%

Question: What about the Blood glucose concentration ([2]; dose 10 mg/kg per os, 7 h) of the same compound?
Answer: 5.7 ± 3.6 mM

Question: And the “% Variation of glycaemia” value ([2]; dose 10 mg/kg per os, 7 h vs 0 h)?
Answer: –71.84%

Question: What about the Blood glucose concentration ([2]; dose 10 mg/kg per os, 9 h) of the same compound?
Answer: 5.6 ± 3.6 mM

Question: What about the “% Variation of glycaemia” value ([2]; dose 10 mg/kg per os, 9 h vs 0 h) of the same compound?
Answer: –72.11%

Question: For `O=c1c(O)c(-c2ccc(O)c(O)c2)oc2cc(O)cc(O)c12` [Quercetin, reference compound], which IC50 (aldose reductase (ALR2)) is on record?
Answer: 3.71 ± 0.29 µM

Question: For `Oc1ccc(/C=C/c2cc(O)cc(O)c2)cc1` [Resveratrol, reference compound], which IC50 (α-Glucosidase) is on record?
Answer: 242 ± 17 µM

Question: What about the IC50 [1] of the same compound?
Answer: 0.83 ± 0.21 µM

Question: And the IC50 (aldose reductase (ALR2); [4])?
Answer: 17 ± 0.31 µM

Question: What about the Blood glucose concentration ([2]; dose 40 mg/kg per os, 0 h) of the same compound?
Answer: 20.0 ± 2.6 mM

Question: And the Blood glucose concentration ([2]; dose 40 mg/kg per os, 1.5 h)?
Answer: 16.3 ± 2.9 mM

Question: What about the “% Variation of glycaemia” value [2, 5] of the same compound?
Answer: –18.42%

Question: And the Blood glucose concentration ([2]; dose 40 mg/kg per os, 3 h)?
Answer: 14.0 ± 2.0 mM

Question: And the “% Variation of glycaemia” value [2, 6]?
Answer: –29.83%

Question: What about the Blood glucose concentration ([2]; dose 40 mg/kg per os, 5 h) of the same compound?
Answer: 12.4 ± 2.1 mM

Question: And the “% Variation of glycaemia” value [2, 7]?
Answer: –38.08%

Question: And the Blood glucose concentration ([2]; dose 40 mg/kg per os, 7 h)?
Answer: 11.2 ± 1.8 mM

Question: And the “% Variation of glycaemia” value [2, 8]?
Answer: –44.25%

Question: And the Blood glucose concentration ([2]; dose 40 mg/kg per os, 9 h)?
Answer: 10.7 ± 1.4 mM

Question: And the “% Variation of glycaemia” value [2, 9]?
Answer: –46.33%
